pEC50: −log10 of the molar value. ≈ marks a conversion by molar mass, not a printed value. A value given as a limit tells only on which side of the number the result lay.

The target in series [1] is T1, Peroxisome proliferator-activated receptor delta (Mus musculus) (UniProt P35396).
T1 sequence (whole entry): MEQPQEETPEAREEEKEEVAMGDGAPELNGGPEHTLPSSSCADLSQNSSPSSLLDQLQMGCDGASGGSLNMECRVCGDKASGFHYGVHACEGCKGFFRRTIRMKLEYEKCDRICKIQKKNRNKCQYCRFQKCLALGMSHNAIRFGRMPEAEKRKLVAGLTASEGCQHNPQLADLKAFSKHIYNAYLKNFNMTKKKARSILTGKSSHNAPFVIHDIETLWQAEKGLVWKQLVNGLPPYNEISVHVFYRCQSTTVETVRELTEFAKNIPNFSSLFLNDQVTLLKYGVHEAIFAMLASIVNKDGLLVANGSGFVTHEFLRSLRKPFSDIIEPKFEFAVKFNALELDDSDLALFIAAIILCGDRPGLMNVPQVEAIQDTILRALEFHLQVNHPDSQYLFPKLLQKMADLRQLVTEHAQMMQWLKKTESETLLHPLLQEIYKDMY
Briefly: Transactivation of Gal4-fused mouse PPARdelta expressed in CHO cells co expressing pG5-Luc reporter at 1 uM. The class given is cell-based. The following applies: filed as agonist.

Series [2] concerns the target T2, Peroxisome proliferator-activated receptor alpha (Homo sapiens) (UniProt Q07869).
T2 sequence (whole entry): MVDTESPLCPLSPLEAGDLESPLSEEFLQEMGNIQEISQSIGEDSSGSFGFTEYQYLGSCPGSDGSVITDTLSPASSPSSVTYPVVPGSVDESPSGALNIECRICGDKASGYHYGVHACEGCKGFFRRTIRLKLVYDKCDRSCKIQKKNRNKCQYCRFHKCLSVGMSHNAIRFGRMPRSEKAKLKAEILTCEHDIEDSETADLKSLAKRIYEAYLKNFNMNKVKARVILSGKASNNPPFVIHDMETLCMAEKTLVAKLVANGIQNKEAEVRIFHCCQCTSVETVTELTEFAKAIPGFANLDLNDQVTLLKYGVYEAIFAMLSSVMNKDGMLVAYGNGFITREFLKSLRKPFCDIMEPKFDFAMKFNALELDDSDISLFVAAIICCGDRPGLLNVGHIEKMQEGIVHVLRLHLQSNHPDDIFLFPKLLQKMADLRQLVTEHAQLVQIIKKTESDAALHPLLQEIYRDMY
As to the kind of experiment: Transactivation of Gal4-fused human PPARalpha expressed in CHO cells co expressing pG5-Luc reporter at 1 uM. The following applies: filed as agonist. It is filed as cell-based.

For a further series, the target named is CYP2D6 (Homo sapiens, UniProt P10635). Briefly: Inhibition of CYP2D6 (unknown origin) assessed as residual activity at 20 uM by enzyme assay relative to control. It is filed as ADME. The following applies: read-out: Activity.
Series [3] has as its target T3, Peroxisome proliferator-activated receptor alpha (Homo sapiens, UniProt Q07869).
T3 sequence (Q07869 whole entry): T2 sequence (whole entry)
Briefly: Transactivation of Gal4-fused human PPARalpha expressed in CHO cells co expressing pG5-Luc reporter. The class given is cell-based.

Series [4] in a line: Total clearance in rat dosed as mixture. It is filed as ADME, organism-based. Conditions: in vivo.
A further series concerns the target CYP3A4 (Homo sapiens, UniProt P08684). As to the kind of experiment: Inhibition of CYP3A4 (unknown origin) assessed as residual activity at 20 uM by enzyme assay relative to control. The class given is ADME. The following applies: read-out: Activity.
In another series the target is T4, CYP1A2 (Homo sapiens, UniProt P05177).
T4 sequence (P05177 whole entry): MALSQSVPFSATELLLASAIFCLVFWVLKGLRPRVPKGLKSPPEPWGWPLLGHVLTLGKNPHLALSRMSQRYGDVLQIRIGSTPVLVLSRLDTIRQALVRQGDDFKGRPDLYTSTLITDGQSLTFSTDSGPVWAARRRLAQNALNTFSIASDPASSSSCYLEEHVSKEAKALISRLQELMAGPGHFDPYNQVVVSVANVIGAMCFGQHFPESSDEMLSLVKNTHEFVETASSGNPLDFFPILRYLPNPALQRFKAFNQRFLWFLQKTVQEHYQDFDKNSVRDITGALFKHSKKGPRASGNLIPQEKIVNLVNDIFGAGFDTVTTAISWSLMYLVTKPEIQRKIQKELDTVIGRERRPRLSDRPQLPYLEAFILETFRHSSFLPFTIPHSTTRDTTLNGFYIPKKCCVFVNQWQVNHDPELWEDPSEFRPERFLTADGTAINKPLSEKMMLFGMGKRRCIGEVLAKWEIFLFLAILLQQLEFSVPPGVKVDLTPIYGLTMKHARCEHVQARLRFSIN
Briefly: Inhibition of CYP1A2 (unknown origin) assessed as residual activity at 20 uM by enzyme assay relative to control. It is filed as ADME. The following applies: read-out: Activity.

The nature of series [5]: Metabolic stability in human liver microsomes assessed as parent compound remaining after 0.5 hrs relative to control. The class given is ADME, Microsome. The following applies: read-out: Stability. (Microsomes from liver hold many membrane-bound enzymes, among them those of drug oxidation.)
Series [6] addresses T5, Peroxisome proliferator-activated receptor delta (Homo sapiens, UniProt Q03181).
T5 sequence (Q03181 whole entry): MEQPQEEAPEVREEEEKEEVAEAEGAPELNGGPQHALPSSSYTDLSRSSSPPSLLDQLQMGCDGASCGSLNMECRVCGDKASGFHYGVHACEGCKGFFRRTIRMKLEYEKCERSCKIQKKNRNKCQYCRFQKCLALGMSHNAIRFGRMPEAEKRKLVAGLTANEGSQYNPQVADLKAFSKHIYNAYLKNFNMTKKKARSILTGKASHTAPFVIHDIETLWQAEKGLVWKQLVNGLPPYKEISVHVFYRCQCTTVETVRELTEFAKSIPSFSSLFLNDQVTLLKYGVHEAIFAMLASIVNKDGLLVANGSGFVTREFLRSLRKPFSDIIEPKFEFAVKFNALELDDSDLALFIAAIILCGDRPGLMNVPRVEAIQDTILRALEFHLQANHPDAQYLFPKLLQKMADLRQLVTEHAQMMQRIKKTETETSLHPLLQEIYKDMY
As to the kind of experiment: Transactivation of Gal4-fused human PPARdelta expressed in CHO cells co expressing pG5-Luc reporter. The class given is cell-based.

In series [7] the target is T6, Peroxisome proliferator-activated receptor gamma (Homo sapiens, UniProt P37231).
T6 sequence (P37231 whole entry): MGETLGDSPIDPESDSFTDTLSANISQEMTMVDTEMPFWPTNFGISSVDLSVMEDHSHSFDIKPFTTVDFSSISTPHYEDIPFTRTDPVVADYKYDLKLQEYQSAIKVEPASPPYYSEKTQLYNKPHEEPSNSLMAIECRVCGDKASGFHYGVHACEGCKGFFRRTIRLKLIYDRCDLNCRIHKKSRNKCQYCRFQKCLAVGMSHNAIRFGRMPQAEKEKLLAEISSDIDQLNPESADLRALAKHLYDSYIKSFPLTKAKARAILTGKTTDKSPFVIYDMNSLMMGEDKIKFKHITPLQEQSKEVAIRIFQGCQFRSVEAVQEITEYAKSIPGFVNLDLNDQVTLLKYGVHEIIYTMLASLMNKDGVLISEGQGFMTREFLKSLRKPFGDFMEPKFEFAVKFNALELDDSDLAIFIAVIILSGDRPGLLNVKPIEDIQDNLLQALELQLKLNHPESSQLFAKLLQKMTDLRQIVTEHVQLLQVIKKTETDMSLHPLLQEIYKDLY
It is filed as cell-based, CHO.

For a further series, the species on record is Homo sapiens. Briefly: Selectivity index, ratio of EC50 for human PPARalpha to EC50 for human PPARdelta.
Series [8] has as its target T7, Peroxisome proliferator-activated receptor delta (Mus musculus, UniProt P35396).
T7 sequence (P35396 whole entry): T1 sequence (whole entry)
Briefly: Transactivation of Gal4-fused mouse PPARdelta expressed in CHO cells co expressing pG5-Luc reporter. It is filed as cell-based.

Series [9] is described as follows: Kinetic solubility of compound at pH 6.8 by HPLC analysis. It is filed as physicochemical. The following applies: buffer, read-out: Kinetic_solubility.
Series [10] is described as follows: Half life in rat dosed as mixture. The following applies: in vivo. It is filed as ADME, organism-based.
The nature of series [11]: Metabolic stability in rat liver microsomes assessed as parent compound remaining after 0.5 hrs relative to control. It is filed as ADME, Microsome. The following applies: read-out: Stability.
The subject of series [12] is Mus musculus. Briefly: Anti-obesity activity in […] mouse assessed as HDL cholesterol level at 30 mg/kg, po for 8 days (reference value: 103.5 +/- 3.2 %). It is filed as functional. Conditions: time 8 day.
Another series addresses CYP2C9 (Homo sapiens, UniProt P11712). Briefly: Inhibition of CYP2C9 (unknown origin) assessed as residual activity at 20 uM by enzyme assay relative to control. The class given is ADME. The following applies: read-out: Activity.
Series [13] relates to Mus musculus. As to the kind of experiment: Anti-diabetic activity in […] mouse assessed as glucose level at 30 mg/kg, po for 8 days (reference value: 737 +/- 52 mg/dL). It is filed as functional. Conditions: time 8 day.
In series [14] the test system is Mus musculus. As to the kind of experiment: Anti-obesity activity in […] mouse assessed as TG level at 30 mg/kg, po for 8 days (reference value: 162.8 +/- 21.4 mg/dL). The class given is functional. The following applies: time 8 day.
For series [15], the target named is PPAR delta/gamma (Homo sapiens) (UniProt P37231+Q03181). As to the kind of experiment: Selectivity index, ratio of EC50 for human PPAgamma to EC50 for human PPARdelta. It is filed as protein assay.
Series [16] deals with T8, Peroxisome proliferator-activated receptor gamma (Homo sapiens) (UniProt P37231).
T8 sequence (whole entry): T6 sequence (P37231 whole entry)
As to the kind of experiment: Transactivation of Gal4-fused human PPARgamma expressed in CHO cells co expressing pG5-Luc reporter at 10 uM. It is filed as cell-based. Conditions: filed as agonist.

Series [17] concerns the target T2, Peroxisome proliferator-activated receptor alpha (Homo sapiens). As to the kind of experiment: Transactivation of Gal4-fused human PPARalpha expressed in CHO cells co expressing pG5-Luc reporter at 10 uM. Conditions: filed as agonist. The class given is cell-based.
Series [18] addresses T9, Peroxisome proliferator-activated receptor delta (Homo sapiens) (UniProt Q03181).
T9 sequence (whole entry): T5 sequence (Q03181 whole entry)
Briefly: Transactivation of Gal4-fused human PPARdelta expressed in CHO cells co expressing pG5-Luc reporter at 10 uM. It is filed as cell-based. The following applies: filed as agonist.

CYP3A4, sequence (P08684 whole entry): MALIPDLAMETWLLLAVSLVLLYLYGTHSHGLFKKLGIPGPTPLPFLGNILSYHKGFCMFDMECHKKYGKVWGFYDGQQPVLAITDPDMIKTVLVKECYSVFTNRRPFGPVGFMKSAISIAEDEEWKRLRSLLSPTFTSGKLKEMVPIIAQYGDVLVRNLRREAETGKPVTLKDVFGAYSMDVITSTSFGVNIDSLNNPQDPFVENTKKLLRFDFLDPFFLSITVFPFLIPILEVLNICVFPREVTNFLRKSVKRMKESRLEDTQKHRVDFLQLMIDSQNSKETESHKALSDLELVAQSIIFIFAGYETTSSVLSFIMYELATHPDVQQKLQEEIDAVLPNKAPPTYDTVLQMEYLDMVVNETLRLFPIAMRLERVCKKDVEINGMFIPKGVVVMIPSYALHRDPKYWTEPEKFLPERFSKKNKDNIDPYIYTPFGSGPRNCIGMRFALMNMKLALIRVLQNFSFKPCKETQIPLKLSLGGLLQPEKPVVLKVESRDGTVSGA
CYP2D6, sequence (P10635 whole entry): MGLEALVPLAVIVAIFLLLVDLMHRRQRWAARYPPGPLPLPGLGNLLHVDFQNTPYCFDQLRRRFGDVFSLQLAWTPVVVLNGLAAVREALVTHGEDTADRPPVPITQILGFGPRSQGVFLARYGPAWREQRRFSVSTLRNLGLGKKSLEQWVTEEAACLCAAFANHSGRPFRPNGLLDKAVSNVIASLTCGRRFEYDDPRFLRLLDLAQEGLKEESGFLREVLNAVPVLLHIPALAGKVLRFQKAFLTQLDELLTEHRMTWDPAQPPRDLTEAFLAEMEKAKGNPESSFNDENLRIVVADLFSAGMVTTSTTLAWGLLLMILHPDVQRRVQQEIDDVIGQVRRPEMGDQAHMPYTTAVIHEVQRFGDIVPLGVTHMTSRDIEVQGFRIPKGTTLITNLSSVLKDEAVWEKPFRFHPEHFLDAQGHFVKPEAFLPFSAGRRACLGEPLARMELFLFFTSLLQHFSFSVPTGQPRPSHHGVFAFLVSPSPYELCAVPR
CYP2C9, sequence (P11712 whole entry): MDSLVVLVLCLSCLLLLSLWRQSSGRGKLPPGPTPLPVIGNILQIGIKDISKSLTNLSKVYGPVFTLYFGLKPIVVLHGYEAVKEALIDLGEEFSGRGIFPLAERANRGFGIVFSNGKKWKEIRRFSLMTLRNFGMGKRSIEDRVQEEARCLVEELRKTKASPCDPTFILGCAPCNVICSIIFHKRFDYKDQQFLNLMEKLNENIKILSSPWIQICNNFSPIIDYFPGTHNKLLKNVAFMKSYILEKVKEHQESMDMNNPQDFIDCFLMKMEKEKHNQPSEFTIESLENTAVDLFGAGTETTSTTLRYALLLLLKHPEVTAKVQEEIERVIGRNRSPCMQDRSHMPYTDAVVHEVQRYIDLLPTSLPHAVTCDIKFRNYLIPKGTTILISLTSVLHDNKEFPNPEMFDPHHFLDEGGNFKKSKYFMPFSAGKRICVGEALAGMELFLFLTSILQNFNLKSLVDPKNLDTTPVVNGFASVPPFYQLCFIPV

For `O=C(O)c1cccc(OCCC2CCN(c3nc4ccc(Cl)cc4s3)CC2)c1`, the results for the fold change (FC) in series [1] and in [2] were 1.4 and 7.5, respectively.

Consider `Cc1ccc(CC(=O)O)cc1OCCC1CCN(c2nc3ccc(Cl)cc3s2)CC1`, for which the activity at 20 µM was 94% at CYP2D6, greater than 99% at CYP3A4, 92% at CYP1A2 and 58% on CYP2C9. In addition, the pEC50 (as a rule, the negative decadic logarithm of the EC50, by convention in mol/L) in [3] was 6.20; in series [6], 7.79; in [7], 6.27; in [8], 7.15. For the same molecule, in series [4], the clearance (usually the volume of plasma or blood freed of the substance per unit of time) came to 14.3 mL/min/kg. Besides, the remaining at 0.5 h in series [5] turned out to be 96%; in [11], 101%. Further, the figures for the Ratio EC50 (in the series listed under Homo sapiens; in [15]) were 38 and 33, respectively. For the same molecule, the solubility kinetic in series [9] was determined as 21.8 µM (≈ 9.7 µg/mL). The half-life (as a rule, the time needed for the level to fall by half in the phase considered) in series [10] was 1.8 h. The Activity stood at 118% with Mus musculus [12], 415 mg/dL in the series on Mus musculus [13] and 63.9 mg/dL with Mus musculus [14].

In the case of `O=C(O)Cc1cccc(OCCC2CCN(c3nc4ccc(Cl)cc4s3)CC2)c1`, the pEC50 in series [3] was 5.65; in [6] it was 6.58; in series [8] it was 5.97.

Regarding `Cc1cc(SCc2sc(-c3ccc(C(F)(F)F)cc3)nc2C)ccc1OCC(=O)O` [GW501516], the results for the fold change (FC) in [1] and in series [2] were 30.4 and 3.1, respectively. Further, the Activity in the series with Mus musculus [12] came to 132.9%; with Mus musculus [13], 493 mg/dL; in the series on Mus musculus [14], 82.4 mg/dL.

With `O=C(O)Cc1cccc(OCC2CCN(c3nc4ccc(Cl)cc4s3)CC2)c1`, the fold change (FC) worked out at 7 in series [1] and 2.5 in series [2].

For the molecule `O=C(O)CCC(=O)OCCN1CCN(c2nc3ccc(Cl)cc3s2)CC1`, the fold change (FC) came to 1.5 in series [16], 3 in series [17], 1.5 in [2] and 2.8 in series [18].

Regarding `O=C(O)CCc1cccc(OCCC2CCN(c3nc4ccc(Cl)cc4s3)CC2)c1`, the results for the fold change (FC) in series [1] and in series [2] were 2.2 and 1.5, respectively.

As for `CCc1ccc(CC(=O)O)cc1OCCC1CCN(c2nc3ccc(Cl)cc3s2)CC1`, the pEC50 was 5.44 in [3], 6.92 in series [6], 6.17 in series [7] and 6.48 in [8].

Regarding `Cc1cc(CC(=O)O)cc(OCCC2CCN(c3nc4ccc(Cl)cc4s3)CC2)c1`, the negative logarithm of the EC50 (pEC50) in series [3] is 6.02; in [6] it was 7.03; in [7], 5.97; in series [8] it was 6.82.

Consider `Cc1ccc(OCCC2CCN(c3nc4ccc(Cl)cc4s3)CC2)cc1CC(=O)O`, for which the values for the negative logarithm of the EC50 (pEC50) in series [6], in series [7] and in [8] were 6.96, 6.01 and 6.08, respectively.

As for `O=C(O)CCC(=O)OCCC1CCN(c2nc3ccc(Cl)cc3s2)CC1`, the fold change (FC) in series [16] was determined as 1.5; in series [17], 8.6; in series [1] it was 2; in [2], 2.4; in [18], 11.

For `CN(CCOc1ccc(CC2SC(=O)NC2=O)cc1)c1ccccn1` (stereo not drawn), in series [2], the fold change (FC) was 1.2.

The record behind these values is ChEMBL document CHEMBL5131453, “Discovery and structure-based design of a new series of potent and selective PPARδ agonists utilizing a virtual screening method” (Bioorg Med Chem Lett, 2022).
